In ChEMBL document CHEMBL2406981, “Novel pyrazoline amidoxime and their 1,2,4-oxadiazole analogues: synthesis and pharmacological screening” (Bioorg Med Chem Lett, 2013):
Converted amounts (≈) assume the structure as drawn.

Columns and labels:
Type in all cases: functional
Aspergillus flavus [1] = assay: Antimicrobial activity against Aspergillus flavus MTCC 873 at 50 ug/ml after 24 hrs by agar disc diffusion method; conditions: MTCC 873, 24 h, read-out: DIZ
[2] = tested on: Radical scavenging activity; assay: Antioxidant activity assessed as DPPH free radical scavenging activity at 50 ug/ml after 20 mins
[3] = Antioxidant activity against ferric chloride-induced lipid peroxidation using egg lecithin at 50 ug/ml after 1 hr
[4] = Antiinflammatory activity against heat-induced albumin denaturation at […] preincubated for 15 mins before heat induction by UV-vis spectrophotometer analysis
Aspergillus flavus [5] = assay: Antimicrobial activity against Aspergillus flavus MTCC 873 at 100 ug/ml after 24 hrs by agar disc diffusion method; conditions: MTCC 873, 24 h, read-out: DIZ
Escherichia coli [6] = assay: Antimicrobial activity against Escherichia coli MTCC 724 at 50 ug/ml after 24 hrs by agar disc diffusion method; conditions: MTCC 724, 24 h, read-out: DIZ
[7] = Antioxidant activity assessed as reducing power of ferric ion at 100 ug/ml after 20 mins; design: scale not given: the % may be the effect or the level left
[8] = Antioxidant activity against ferric chloride-induced lipid peroxidation using egg lecithin at 0.75 ug/ml after 1 hr
[9] = tested on: Radical scavenging activity; assay: Antioxidant activity assessed as DPPH free radical scavenging activity at 100 ug/ml after 20 mins
Bacillus cereus [10] = assay: Antimicrobial activity against Bacillus cereus MTCC 8372 at 100 ug/ml after 24 hrs by agar disc diffusion method; conditions: MTCC 8372, 24 h, read-out: DIZ
Staphylococcus aureus [11] = assay: Antimicrobial activity against Staphylococcus aureus MTCC 96 at 50 ug/ml after 24 hrs by agar disc diffusion method; conditions: MTCC 96, 24 h, read-out: DIZ
[12] = Antioxidant activity against ferric chloride-induced lipid peroxidation using egg lecithin at 0.05 ug/ml after 1 hr
Shigella flexneri [13] = assay: Antimicrobial activity against Shigella flexneri MTCC 1457 at 100 ug/ml after 24 hrs by agar disc diffusion method; conditions: MTCC 1457, 24 h, read-out: DIZ
Aspergillus niger [14] = assay: Antimicrobial activity against Aspergillus niger MTCC 281
[15] = Antioxidant activity against ferric chloride-induced lipid peroxidation using egg lecithin at 100 ug/ml after 1 hr
Shigella flexneri [16] = assay: Antimicrobial activity against Shigella flexneri MTCC 1457 at 50 ug/ml after 24 hrs by agar disc diffusion method; conditions: MTCC 1457, 24 h, read-out: DIZ
Escherichia coli [17] = assay: Antimicrobial activity against Escherichia coli MTCC 724 at 100 ug/ml after 24 hrs by agar disc diffusion method; conditions: MTCC 724, 24 h, read-out: DIZ
[18] = Antioxidant activity against ferric chloride-induced lipid peroxidation using egg lecithin at 0.1 ug/ml after 1 hr
[19] = tested on: Radical scavenging activity; assay: Antioxidant activity assessed as DPPH free radical scavenging activity at 10 ug/ml after 20 mins
Bacillus cereus [20] = assay: Antimicrobial activity against Bacillus cereus MTCC 8372 at 50 ug/ml after 24 hrs by agar disc diffusion method; conditions: MTCC 8372, 24 h, read-out: DIZ
Klebsiella pneumoniae [21] = assay: Antimicrobial activity against Klebsiella pneumoniae MTCC 3384 at 100 ug/ml after 24 hrs by agar disc diffusion method; conditions: MTCC 3384, 24 h, read-out: DIZ
[22] = Antioxidant activity against ferric chloride-induced lipid peroxidation using egg lecithin at 1 ug/ml after 1 hr
[23] = Antioxidant activity against ferric chloride-induced lipid peroxidation using egg lecithin at 0.01 ug/ml after 1 hr
Aspergillus flavus [24] = assay: Antimicrobial activity against Aspergillus flavus MTCC 873
Staphylococcus aureus [25] = assay: Antimicrobial activity against Staphylococcus aureus MTCC 96
[26] = Antioxidant activity against ferric chloride-induced lipid peroxidation using egg lecithin at 5 ug/ml after 1 hr
[27] = Antioxidant activity against ferric chloride-induced lipid peroxidation using egg lecithin at 0.5 ug/ml after 1 hr
Klebsiella pneumoniae [28] = assay: Antimicrobial activity against Klebsiella pneumoniae MTCC 3384 at 50 ug/ml after 24 hrs by agar disc diffusion method; conditions: MTCC 3384, 24 h, read-out: DIZ
[29] = Antioxidant activity against ferric chloride-induced lipid peroxidation using egg lecithin at 0.25 ug/ml after 1 hr
[30] = Antioxidant activity against ferric chloride-induced lipid peroxidation using egg lecithin at 2.5 ug/ml after 1 hr
Staphylococcus aureus [31] = assay: Antimicrobial activity against Staphylococcus aureus MTCC 96 at 100 ug/ml after 24 hrs by agar disc diffusion method; conditions: MTCC 96, 24 h, read-out: DIZ
Klebsiella pneumoniae [32] = assay: Antimicrobial activity against Klebsiella pneumoniae MTCC 3384
Aspergillus niger [33] = assay: Antimicrobial activity against Aspergillus niger MTCC 281 at 100 ug/ml after 24 hrs by agar disc diffusion method; conditions: MTCC 281, 24 h, read-out: DIZ
Shigella flexneri [34] = assay: Antimicrobial activity against Shigella flexneri MTCC 1457
[35] = Antioxidant activity assessed as reducing power of ferric ion at 50 ug/ml after 20 mins; design: scale not given: the % may be the effect or the level left
Escherichia coli [36] = assay: Antimicrobial activity against Escherichia coli MTCC 724
Bacillus cereus [37] = assay: Antimicrobial activity against Bacillus cereus MTCC 8372
[38] = Antioxidant activity against ferric chloride-induced lipid peroxidation using egg lecithin at 10 ug/ml after 1 hr
[39] = Antioxidant activity assessed as reducing power of ferric ion at 10 ug/ml after 20 mins; design: scale not given: the % may be the effect or the level left
Aspergillus niger [40] = assay: Antimicrobial activity against Aspergillus niger MTCC 281 at 50 ug/ml after 24 hrs by agar disc diffusion method; conditions: MTCC 281, 24 h, read-out: DIZ

| MIC (Aspergillus niger [14]) [µg/mL] | Compound | zone of inhibition at 50 µg/mL (Aspergillus flavus [1]) [mm] | Activity [2] [%] | inhibition [3] [%] | inhibition [4] [%] | zone of inhibition at 100 µg/mL (Aspergillus flavus [5]) [mm] | zone of inhibition at 50 µg/mL (Escherichia coli [6]) [mm] | Activity [7] [%] | inhibition [8] [%] | Activity [9] [%] | zone of inhibition at 100 µg/mL (Bacillus cereus [10]) [mm] | zone of inhibition at 50 µg/mL (Staphylococcus aureus [11]) [mm] | inhibition [12] [%] | zone of inhibition at 100 µg/mL (Shigella flexneri [13]) [mm] | inhibition [15] [%] | zone of inhibition at 50 µg/mL (Shigella flexneri [16]) [mm] | zone of inhibition at 100 µg/mL (Escherichia coli [17]) [mm] | inhibition [18] [%] | Activity [19] [%] | inhibition [38] [%] | also measured |
| --- | --- | --- | --- | --- | --- | --- | --- | --- | --- | --- | --- | --- | --- | --- | --- | --- | --- | --- | --- | --- | --- |
| 50 (≈ 178 µM) | N/C(=N\O)C1CC(c2ccccc2)=NN1c1ccccc1 (stereo not drawn) | 4 | 28 | 15 | 61.7 | 4 | 2 | 56 | 8.5 | 51 | 3 | 3 | 1.3 | 10 | 14 | 3 | 7 | 8.4 | 16 | 32 | zone of inhibition at 50 µg/mL (Bacillus cereus [20]): 2 mm; zone of inhibition at 100 µg/mL (Klebsiella pneumoniae [21]): 8 mm; inhibition [22]: 9.5%; inhibition [23]: 0.7%; MIC (Aspergillus flavus [24]): 30 µg/mL (≈ 107 µM); MIC (Staphylococcus aureus [25]): 40 µg/mL (≈ 143 µM); inhibition [26]: 21%; inhibition [27]: 8.2%; zone of inhibition at 50 µg/mL (Klebsiella pneumoniae [28]): 2 mm; inhibition [29]: 8%; inhibition [30]: 14.7%; zone of inhibition at 100 µg/mL (Staphylococcus aureus [31]): 6 mm; MIC (Klebsiella pneumoniae [32]): 40 µg/mL (≈ 143 µM); zone of inhibition at 100 µg/mL (Aspergillus niger [33]): 3 mm; MIC (Shigella flexneri [34]): 40 µg/mL (≈ 143 µM); Activity [35]: 12%; MIC (Escherichia coli [36]): 50 µg/mL (≈ 178 µM); MIC (Bacillus cereus [37]): 50 µg/mL (≈ 178 µM); Activity [39]: 8%; zone of inhibition at 50 µg/mL (Aspergillus niger [40]): 2 mm |
| – | VITAMIN E | – | – | 62 | – | – | – | – | 7.7 | – | – | – | 2 | – | 92 | – | – | 3.4 | – | 47 | inhibition [22]: 9.3%; inhibition [23]: 1.2%; inhibition [26]: 26%; inhibition [27]: 6%; inhibition [29]: 4.1%; inhibition [30]: 17% |
| 10 (≈ 25.2 µM) | COc1ccc(C2=NN(c3ccccc3)C(c3noc(-c4ccccc4)n3)C2)cc1 (stereo not drawn) | 7 | 36 | 40 | 23.3 | 10 | 6 | 64 | – | 51 | 12 | 2 | – | 8 | 62 | 7 | 8 | – | 19 | 26 | zone of inhibition at 50 µg/mL (Bacillus cereus [20]): 3 mm; zone of inhibition at 100 µg/mL (Klebsiella pneumoniae [21]): 8 mm; MIC (Aspergillus flavus [24]): 25 µg/mL (≈ 63.1 µM); MIC (Staphylococcus aureus [25]): 55 µg/mL (≈ 139 µM); zone of inhibition at 50 µg/mL (Klebsiella pneumoniae [28]): 6 mm; zone of inhibition at 100 µg/mL (Staphylococcus aureus [31]): 12 mm; MIC (Klebsiella pneumoniae [32]): 25 µg/mL (≈ 63.1 µM); zone of inhibition at 100 µg/mL (Aspergillus niger [33]): 18 mm; MIC (Shigella flexneri [34]): 25 µg/mL (≈ 63.1 µM); Activity [35]: 20%; MIC (Escherichia coli [36]): 25 µg/mL (≈ 63.1 µM); MIC (Bacillus cereus [37]): 45 µg/mL (≈ 114 µM); Activity [39]: 11%; zone of inhibition at 50 µg/mL (Aspergillus niger [40]): 10 mm |
